By IC50 is commonly meant the concentration at which inhibition is half-maximal.

Results on 3 compounds are retold here after article PMC7922706, “New Inhibitory Effects of Cilnidipine on Microglial P2X7 Receptors and IL-1β Release: An Involvement in its Alleviating Effect on Neuropathic Pain” (Cells, 2021).

The structures appear in SMILES notation. Like-named read-outs stand apart in the source and are kept apart here.

The assay addresses T1, rat P2X7R (Rattus norvegicus, UniProt Q64663).
T1 construct: gene P2rx7; rP2X7R (NM_019256) stably expressed in 1321N1 cells
T1 sequence (Q64663 1-595): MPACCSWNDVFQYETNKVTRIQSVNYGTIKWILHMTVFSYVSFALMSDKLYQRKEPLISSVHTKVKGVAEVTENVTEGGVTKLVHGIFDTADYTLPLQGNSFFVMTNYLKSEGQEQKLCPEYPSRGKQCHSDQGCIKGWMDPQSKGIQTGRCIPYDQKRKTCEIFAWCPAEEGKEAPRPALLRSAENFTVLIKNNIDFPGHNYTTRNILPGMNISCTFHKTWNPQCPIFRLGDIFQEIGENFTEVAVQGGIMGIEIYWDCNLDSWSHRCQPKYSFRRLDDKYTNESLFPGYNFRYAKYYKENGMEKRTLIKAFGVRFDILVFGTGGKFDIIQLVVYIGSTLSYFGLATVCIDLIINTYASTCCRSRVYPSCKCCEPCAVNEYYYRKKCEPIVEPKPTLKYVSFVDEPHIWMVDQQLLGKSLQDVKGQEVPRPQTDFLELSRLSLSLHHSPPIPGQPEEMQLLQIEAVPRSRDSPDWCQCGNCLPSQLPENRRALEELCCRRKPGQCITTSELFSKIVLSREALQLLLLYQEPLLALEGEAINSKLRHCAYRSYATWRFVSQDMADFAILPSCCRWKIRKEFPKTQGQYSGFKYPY
Kind of assay: single-cell Fura-2 Ca2+ imaging, BzATP-stimulated rP2X7R-1321N1 cells. Format: cell-based.

As to `COCCOC(=O)C1=C(C)NC(C)=C(C(=O)OC/C=C/c2ccccc2)C1c1cccc([N+](=O)[O-])c1` (racemic) [CNP, 2-Methoxyethyl(E)-3-phenyl-2-propen-1-yl(±)-1,4-dihydro-2,6-dimethyl-4-(3-nitrophenyl)pyridine-3,5-dicarboxylate], the IC50 (read-out: IC50) was 130 nM.
Turning to `CCc1oc2ccccc2c1C(=O)c1cc(Br)c(O)c(Br)c1` [BBR, benzbromarone], the IC50 was 250 nM.
As for `COc1cc(C(=O)NS(=O)(=O)c2ccccc2C)ccc1Cc1cn(C)c2ccc(NC(=O)OC3CCCC3)cc12` [ZFK, zafirlukast], for the setting “read-out: IC50”, the IC50 came to 220 nM.
